The text below walks through data of US7423181B2, “Aminoalkoxy-functional chalcones” (Lica Pharmaceuticals A/S, priority 2002, dated 2008).

Series [1] can be described thus: Determination of metabolic stability (liver microsomes). In kind it is in vitro ADME. The conditions noted are these: rat liver microsomes, 20 μM, 15 min. As to the method:
Determination of Metabolic Stability
Incubations were performed with Wistar rat liver microsomes (0.25 mg/ml) in 2% sodium bicarbonate solution. NADP (0.13 mg/ml), glucose-6-phosphate (0.63 mg/ml) and glucose-6-phosphate dehydrogenase (0.38 units/ml) were used as NADPH generation system and UDPGA (0.48 mg/ml) was added to include the phase II reaction, glucuronic acid conjugation, in the assay. After 5 minutes of pre-incubation the reaction was started by addition of the test article to give a final concentration of 20 μM. Samples were incubated for 15 min at 37° C. and the reactions were terminated by addition of equal volumes of acetonitrile. Blank incubations were performed at the same concentration but without addition of microsomes. Both blank and microsome-containing samples were made in replicats of three. Prior to analysis samples were centrifuged for 10 min. at 3500 rpm,HPLC system:
Initial conditions were 40% mobile phase A (acetonitrile) and 60% mobile phase B (10 mM ammonium acetate pH 9.5). During the first 20 minutes, the mobile phase was changed via a linear gradient to 90% A and 10% B. This was followed by a 5 minutes linear gradient to initial conditions, which were maintained for 5 min. The flow rate was 0.20 m)/min and injection volume 10 μl.

Series [2] relates to Plasmodium falciparum 3D7. As to the kind of experiment: Plasmodium falciparum assay. In kind it is cell-based. The settings on record: Plasmodium falciparum 3D7 (Table 2); read-out: IC50.
Series [3] concerns Eschericia coli ATCC25922. Nature of the series: MIC determination in broth microdilution assay. The conditions noted are these: for MIC: G: Eschericia coli ATCC25922. (Dilution methods test growth across graded concentrations, often in twofold steps.)
Series [4] relates to Enterococcus faecalis ATCC29212. As to the kind of experiment: MIC determination in broth microdilution assay. The settings on record: D: Enterococcus faecalis ATCC29212.
The subject of series [5] is Staphylococcus aureus ATCC29213. Nature of the series: MIC determination in broth microdilution assay. The settings on record: A: Staphylococcus aureus ATCC29213.
Series [6] deals with Enterococcus faecium #17501 (vancomycin-resistant clinical isolate). As to the kind of experiment: MIC determination in broth microdilution assay. The conditions noted are these: E: Enterococcus faecium #17501 (vancomycin-resistant).
Series [7] in a line: Determination of solubility. The series is classed as physicochemical. The conditions noted are these: aqueous buffer at pH 7.4. As to the method: Determination of Solubility
Solubility of the compounds was determined by preparing a saturated solution of compound in 0.3 M phosphate buffer (pH 7.4±0.3) in a brown glass tube. The suspensions were rotated slowly for 24 hours. Aliquots were centrifuged for 10 minutes at 14.000 rpm and supernatants were diluted in 40% (v/v) acetonitrile in water prior to HPLC analysis. Concentrations of analytes were quantified against a standard curve and used as term of solubility. The HPLC-UV method used for the assessment of solubility is the same as used in the in vitro metabolism assay.

In series [8] the test system is Staphylococcus aureus ATCC33591(resistant to methicillin). Nature of the series: MIC determination in broth microdilution assay. The conditions noted are these: B: Staphylococcus aureus ATCC33591(resistant to methicillin).
The subject of another series is Eschericia coli ESS. Nature of the series: MIC determination in broth microdilution assay. The conditions noted are these: for MIC: H: Eschericia coli ESS.
Series [9] relates to Streptococcus pneumoniae #998 (clinical isolate). As to the kind of experiment: MIC determination in broth microdilution assay. The settings on record: F: Streptococcus pneumoniae #998.
The next series deals with L. major promastigotes. As to the kind of experiment: Leishmania promastigote assay. The settings on record: L. major.
The test system of series [10] is panel of 10 different non-fastidious bacteria. As to the kind of experiment: Screening against panel of non-fastidious bacteria. The conditions noted are these: Gram-positive pathogens.

pIC50: −log10 of the molar value. In brackets after ≈: the same amount, converted by molar mass. A value given as a limit tells only on which side of the number the result lay.

Take `CN(C)CCCOc1cccc(/C=C/C(=O)c2ccccc2CN(C)C)c1` [Compound C071, (E)-1-(2-Dimethylaminomethyl-phenyl)-3-[3-(3-dimethylamino-propoxy)-phenyl]-propenone]: the “Metabolic turn-over in vitro” value in series [1] was 3%.

By pIC50 is commonly meant the IC50 on a negative log10 scale, so that one unit is a factor of ten. `COc1ccc(C(=O)/C=C/c2cc(-c3cc(C)cc(C)c3)ccc2OCCN(C)C)cc1CN(C)C` [Compound C090, (E)-3-[4-(2-Dimethylamino-ethoxy)-3′,5′-dimethyl-biphenyl-3-yl]-1-(3-dimethylaminomethyl-4-methoxy-phenyl)-propenone]: the negative-log IC50 (pIC50) in series [2] is 6.30.

Broadly, the MIC is the lowest concentration found to suppress growth. A low value points to inhibition by little substance. Broadly, the Solubility is the dissolved amount per volume that the medium holds. Read a low Solubility as a poorly soluble substance. Take `Cc1cc(C)cc(-c2ccc(OCCN(C)C)c(/C=C/C(=O)c3cccc(NCCN(C)C)c3)c2)c1` [Compound C075, (E)-3-[4-(2-Dimethylamino-ethoxy)-3′,5′-dimethyl-biphenyl-3-yl]-1-[3-(2-dimethylamino-ethylamino)-phenyl]-propenone]: the “activity against E coli ATCC25922” value in series [3] is “high activity”. The MIC worked out at 9.4 µM (≈ 4.57 µg/mL) in series [3]; 9.4 µM (≈ 4.57 µg/mL) in [4]; 4.7 µM (≈ 2.28 µg/mL) in [5]; 9.4 µM (≈ 4.57 µg/mL) in series [6]; 4.7 µM (≈ 2.28 µg/mL) in series [8]; 4.7 µM (≈ 2.28 µg/mL) in the series on Eschericia coli ESS. The same compound displayed a Solubility in [7] of 4100 µg/mL (≈ 8.44 mM). In the series with Eschericia coli ESS, the “activity against ESS strain of E.coli” value was “high activity”. Besides, the “Metabolic turn-over in vitro” value in series [1] is on record as 8%. The pIC50 in series [2] is 6.30.

On to `Cc1cc(C)cc(-c2ccc(OCCN(C)C)c(/C=C/C(=O)c3cccc(CN(C)C)c3)c2)c1` [Compound C089, (E)-3-[4-(2-Dimethylamino-ethoxy)-3′,5′-dimethyl-biphenyl-3-yl]-1-(3-dimethylaminomethyl-phenyl)-propenone], for which the MIC came to 37.5 µM (≈ 17.1 µg/mL) in series [3]; 9.4 µM (≈ 4.29 µg/mL) in series [4]; 9.4 µM (≈ 4.29 µg/mL) in series [5]; 9.4 µM (≈ 4.29 µg/mL) in series [6]; 9.4 µM (≈ 4.29 µg/mL) in series [8]; 4.7 µM (≈ 2.15 µg/mL) against Eschericia coli ESS. For the same compound, the minimal inhibitory concentration (MIC) in series [9] came to 9.7 µM (≈ 4.43 µg/mL). The “Metabolic turn-over in vitro” value in series [1] came out at 9%.

With `Cc1ccccc1-c1ccc(OCCN(C)C)c(/C=C/C(=O)c2ccccc2CN2CCN(C)CC2)c1` [Compound C032, (E)-3-[4-(2-Dimethylamino-ethoxy)-2′-methyl-biphenyl-3-yl]-1-[2-(4-methyl-piperazin-1-ylmethyl)-phenyl]-propenone], the pIC50 in the series with L. major promastigotes is 6.15; in series [2], 6.30.

Turning to `COc1ccc(C(=O)/C=C/c2cc(C(C)(C)C)ccc2OCCN(C)C)c(F)c1` [Compound C004, (E)-3-[5-tert-Butyl-2-(2-dimethylamino-ethoxy)-phenyl]-1-(2-fluoro-4-methoxy-phenyl)-propenone], the MIC in series [3] turned out to be 75.0 µM (≈ 30 µg/mL); in [4], 18.8 µM (≈ 7.51 µg/mL); in series [5], 9.4 µM (≈ 3.76 µg/mL); in series [6], 18.8 µM (≈ 7.51 µg/mL); in series [8], 9.4 µM (≈ 3.76 µg/mL); in the series on Eschericia coli ESS, 9.4 µM (≈ 3.76 µg/mL). In addition, the MIC in [9] is 18.8 µM (≈ 7.51 µg/mL). Further, the “potency against Gram-positive pathogens in comparison with Licochalcone A” value in [10] is on record as “increased potency”.

As to `CN(C)CCOc1ccc(-c2ccccc2O)cc1/C=C/C(=O)c1ccccc1CN(C)C` [Compound C131, (E)-3-[4-(2-Dimethylamino-ethoxy)-2′-hydroxy-biphenyl-3-yl]-1-(2-dimethylaminomethyl-phenyl)-propenone], the pIC50 in series [2] was 6.52.

Compound `Cc1cc(C)cc(-c2ccc(OCCN(C)C)c(/C=C/C(=O)c3ccc(O)c(F)c3)c2)c1` [Compound C140, (E)-3-[4-(2-Dimethylamino-ethoxy)-3′,5′-dimethyl-biphenyl-3-yl]-1-(3-fluoro-4-hydroxy-phenyl)-propenone] had a pIC50 in the series with L. major promastigotes of 6.70.

With `COc1ccc(C(=O)/C=C/c2cc(-c3cc(C)cc(C)c3)ccc2OCCN(C)C)c(F)c1` [Compound C024, (E)-3-[4-(2-Dimethylamino-ethoxy)-3′,5′-dimethyl-biphenyl-3-yl]-1-(2-fluoro-4-methoxy-phenyl)-propenone], in series [1], the “Metabolic turn-over in vitro” value came out at 3%. For the same compound, the pIC50 in the series on L. major promastigotes is 7.40.

Take `CCCc1cc(/C=C/C(=O)c2ccc(OC)cc2F)c(OCCN(C)C)cc1O` [Compound C039, (E)-3-[2-(2-Dimethylamino-ethoxy)-4-hydroxy-5-propyl-phenyl]-1-(2-fluoro-4-methoxy-phenyl)-propenone]: the MIC was 75.0 µM (≈ 30.1 µg/mL) in series [3]; 18.8 µM (≈ 7.55 µg/mL) in [4]; 9.4 µM (≈ 3.77 µg/mL) in series [5]; 18.8 µM (≈ 7.55 µg/mL) in [6]; 18.8 µM (≈ 7.55 µg/mL) in series [8]; 9.4 µM (≈ 3.77 µg/mL) in the series on Eschericia coli ESS. In [9], this compound displayed a minimum inhibitory concentration (MIC) of 18.8 µM (≈ 7.55 µg/mL).

`Cc1ccccc1-c1ccc(OCCN2CCCC2)c(/C=C/C(=O)c2ccccc2CN(C)C)c1` [Compound C136, (E)-1-(2-Dimethylaminomethyl-phenyl)-3-[2′-methyl-4-(2-pyrrolidin-1-yl-ethoxy)-biphenyl-3-yl]-propenone] registered a Solubility in series [7] of 5500 µg/mL (≈ 11.7 mM).

`COc1ccccc1-c1ccc(OCCN(C)C)c(/C=C/C(=O)c2ccccc2CN(C)C)c1` [Compound C036, (E)-3-[4-,(2-Dimethylamino-ethoxy)-2′-methoxy-biphenyl-3-yl]-1-(2-dimethylaminomethyl-phenyl)-propenone]: the Solubility in series [7] stood at 1800 µg/mL (≈ 3.92 mM). Also, the negative-log IC50 (pIC50) in series [2] was 6.70.

`CN(C)CCOc1ccc(-c2ccccc2)cc1/C=C/C(=O)c1cccc(CN(C)C)c1` [Compound C037, (E)-3-[4-(2-Dimethylamino-ethoxy)-biphenyl-3-yl]-1-(3-dimethylaminomethyl-phenyl)-propenone] came in with a Solubility in [7] of 1500 µg/mL (≈ 3.5 mM). Also, in series [10], the “potency against Gram-positive pathogens in comparison with Licochalcone A” value is given as “increased potency”. Moreover, in the series with L. major promastigotes, the pIC50 is 6.30.

A word on the solubility: it is the dissolved amount per volume that the medium holds. The low end stands for a poorly soluble substance, the high end for a readily soluble substance. As to `Cc1ccccc1-c1ccc(OCCN(C)C)c(CCC(=O)c2ccccc2CN(C)C)c1` [Compound C073, 3-[4-(2-Dimethylamino-ethoxy)-2′-methyl-biphenyl-3-yl]-1-(2-dimethylaminomethyl-phenyl)-propan-1-one], the solubility at 24 h in series [7] (0.3 M phosphate buffer, thermodynamic from solid) is over 10000 µg/mL.

As to `Cc1cc(C)cc(-c2ccc(OCCN(C)C)c(/C=C/C(=O)c3ccc(O)cc3F)c2)c1` [Compound C156, (E)-3-[4-(2-Dimethylamino-ethoxy)-3′,5′-dimethyl-biphenyl-3-yl]-1-(2-fluoro-4-hydroxy-phenyl)-propenone], in series [2], the negative-log IC50 (pIC50) was 7.00.

For the compound `COc1ccc(C(=O)/C=C/c2cc(-c3ccccc3)ccc2OCCN(C)C)c(F)c1` [Compound C011, (E)-3-[4-(2-Dimethylamino-ethoxy)-biphenyl-3-yl]-1-(2-fluoro-4-methoxy-phenyl)-propenone], in the series with L. major promastigotes, the pIC50 is 7.00.

For `Cc1ccccc1-c1ccc(OCCN(C)C)c(/C=C/C(=O)c2ccc(O)c(CN(C)C)c2)c1` [Compound C108, (E)-3-[4-(2-Dimethylamino-ethoxy)-2′-methyl-biphenyl-3-yl]-1-(3-dimethylaminomethyl-4-hydroxy-phenyl)-propenone], the Solubility in series [7] was 18100 µg/mL (≈ 39.5 mM).

As for `COc1ccc(C(=O)/C=C/c2cc(-c3cc(C)cc(C)c3)ccc2OCCN(C)C)c(CN(C)C)c1` [Compound C092, (E)-3-[4-(2-Dimethylamino-ethoxy)-3′,5′-dimethyl-biphenyl-3-yl]-1-(2-dimethylaminomethyl-4-methoxy-phenyl)-propenone], the MIC in [3] was determined as 75 µM (≈ 36.5 µg/mL); in series [4] it was 4.7 µM (≈ 2.29 µg/mL); in series [5], 4.7 µM (≈ 2.29 µg/mL); in series [6], 4.7 µM (≈ 2.29 µg/mL); in series [8], 9.4 µM (≈ 4.57 µg/mL); against Eschericia coli ESS, 4.7 µM (≈ 2.29 µg/mL). This compound also displayed a minimal inhibitory concentration (MIC) in series [9] of 4.7 µM (≈ 2.29 µg/mL). Further, the “Metabolic turn-over in vitro” value in series [1] is listed as 4%.

In [7], `COc1ccc(C(=O)C=Cc2cc(-c3ccccc3Cl)ccc2OCCN(C)C)c(OC)c1OC` [Compound C018, (E)-3-[2′-Chloro-4-(2-dimethylamino-ethoxy)-biphenyl-3-yl]-1-(2,3,4-trimethoxy-phenyl)-propenone] displayed a Solubility of 1500 µg/mL (≈ 3.02 mM).
